In patent publication US12085575B2, “Compositions and methods for detecting proteinopathies” (BOARD OF SUPERVISORS OF LOUISIANA STATE UNIVERSITY AND …, priority 2011, dated 2024):
Residues, ends and D or L forms follow the SMILES beside them. *: point of attachment. Cbz = O=C(OCc1ccccc1)*

Legend:
Type in all cases: cell-based, human
[1] = system: HA-polyubiquitylated proteins; test: UV-induced degradation of HA-polyubiquitylated proteins (anti-HA Western blot); conditions: for UV-induced degradation of HA-Lys48-linked polyubiquitylated proteins: HA-Lys48 only ubiquitin construct; for UV-induced decrease of HA-polyubiquitylated proteins: MG132 1 μM or Bafl 1 nM 18 h, 3 h recovery; for UV-induced decrease of HA-polyubiquitylated proteins / UV-induced degradation of HA-polyubiquitylated proteins: UV 25 mJ/m2; for UV-induced degradation of HA-polyubiquitylated proteins: MG132 1 nm or 3-MA 10 nm for 18 h
Experimental: Immunoblotting Analysis of HA-ubiquitin conjugated proteins in cells exposed to UV radiation. Cells ([…]) were transfected with a hemagglutinin (HA)-ubiquitin plasmid using the PolyFect transfection reagent (Qiagen; Valencia, CA) as described (24). Twenty-four h after transfection, cells were treated with either proteasome inhibitor MG132 (1 μM) (Boston Biochemicals; Cambridge, MA) or autophagy inhibitor Bafilomycin A1 (Bafl) (1 nM) (Sigma-Aldrich) or 3-Methyladenine (3-MA) (100 nM) for 18 h. Cells were exposed to UV radiation (25 mJoules, using BioRad GS Gene Linker™ UV Chamber) and/or left untreated. Cells were then allowed to recover in the presence of inhibitors for 3 hr. Cell lysis, SDS-PAGE, and immunoblotting analysis to detect HA-ubiquitin conjugated proteins using anti-HA antibodies was carried out as described herein.
Decrease in the steady state levels of polyubiquitylated proteins could be due to their increased deubiquitylation or increased degradation via the 26S proteasome. Also, the ubiquitin antibody used in the experiment herein is known to cross-react with free ISG15/UCRP (44), and ISG15 protein is elevated in A-T cells (20). An HA-ubiquitin construct was transfected and then the steady state levels of the HA-polyubiquitylated proteins was assessed (to rule out the possibility of protein polyubiquitylation versus protein polyISGlyation), in the absence or presence of the proteasome inhibitor MG132 (to rule out the possibility of protein deubiquitylation versus protein degradation), in UV treated A-T and ATM+ cells. In FIG. 8B, A-T and ATM+ cells were transfected with a HA-ubiquitin construct. Cells were then treated with MG132 (1 μM) or Bafl (1 nM) for 18 hours and exposed to UV radiation (25 mJ/m2). After recovery in the presence of inhibitors for an additional three hours, cells were lysed. Cell extracts were analyzed by Western blotting for HA-polyubiquitylated proteins and actin using anti-HA and anti-actin antibodies respectively. Intensity of the total HA-polyubiquitylated proteins was quantitated using BioRad Quantity One software and results shown in FIG. 8C.
To complement the results shown in FIG. 8B, another construct was used that expresses HA-ubiquitin and that can preferentially make polyubiquitin chains linked through Lys48 on the substrates (20). In FIG. 8D, A-T and ATM+ cells were transfected with HA-Lys48 only ubiquitin construct. The inhibitor and UV treatments, cell lysis, SDS-PAGE, and immunoblotting analysis to detect HA-ubiquitin conjugated proteins using anti-HA antibodies was carried out as described herein. The experiment was repeated two times with the reproducible results. Similar results were obtained using this distinct HA-ubiquitin construct (FIG. 8D) as obtained herein (FIG. 8B); UV induced MG132- and Bafilomycin-resistant degradation of HA-Lys48-linked polyubiquitylated proteins in A-T cells, but not in ATM+ cells.
For FIG. 14A, HA-ubiquitin-transfected A-T/LV-control shRNA cells were exposed to UV (25 mJ/m2). After three hours of recovery, assessment of HA-polyubiquitylated proteins was carried out as described herein for FIG. 8B. In FIG. 14B, HA-ubiquitin-transfected A-T/LV-control shRNA cells were treated with Bafl (1 nm for 18 h). Cells were then exposed to UV (25 mJ/m2). After three hours of recovery in the presence of the inhibitor, assessment of HA-polyubiquitylated proteins was carried out as described for FIG. 14A. For FIG. 14C, HA-ubiquitin-transfected A-T/LV-control shRNA cells were treated with MG132 (1 nm for 18 h). Cells were then exposed to UV (25 mJ/m2). After three hours of recovery in the presence of the inhibitor, assessment of HA-polyubiquitylated proteins was carried out as described for FIG. 14A. For FIG. 14D, HA-ubiquitin-transfected A-T/LV-control shRNA cells were treated with 3-MA (10 nm for 18 h). Cells were then exposed to UV (25 mJ/m2). […]

[2] = system: HA-polyubiquitylated proteins; test: as above; conditions: A-T cells; 50 nM Bafl
LC3 and p62 = test: UV-induced degradation of autophagy substrates LC3 and p62 (Western blot)
Experimental: Immunoblotting and immunofluorescence analysis: Immunoblotting analysis of proteins in cultured cells: Cells ([…]) were cultured in 35 mm tissue culture plates. After various experimental treatments, cells were lysed using an SDS-PAGE sample buffer. Cell lysates were then analyzed by SDS-PAGE (10% for p62 or 15% for LC3 and polyubiquitin conjugates) and immunoblotting analysis using either anti-ISG15 (raised against human ISG15 (23)), anti-ubiquitin (Sigma-Aldrich), anti-HA (gift from Dr. Walworth at Robert Wood Johnson Medical School/University of Medicine and Dentistry of New Jersey; Piscataway, NJ)), anti-LC3 (MBL International Corporation; Woburn, MA), or p62 (Sigma-Aldrich) antibodies, as indicated, using the ECL Western procedure (Pierce) and the BioRad VersaDoc Imaging System.
Because degradation of proteasome substrates is deregulated in A-T cells, the degradation of the autophagy substrates (autophagic flux) LC3 and p62 was assessed in UV-exposed A-T and ATM+ cells (55). For FIGS. 10A-10D, A-T and ATM+ cells were treated with Bafl (1 nM for 18 h) and then exposed to UV as indicated (25 mJ/m2). Three hours after recovery in the presence of inhibitors, cells were lysed. Cell lysates were analyzed by Western blotting for LC3 (FIG. 10A), p62 […], and actin (lower panels in FIGS. 10A and 10C) using their specific antibodies. Intensity of the total LC3 (LC3-I+II) and p62 proteins was quantitated using BioRad Quantity One software, and the results shown in FIGS. 10B and 10D, respectively. […] show average values (±SEM) of % degradation of LC3 and p62 from three independent experiments. All control values (−UV and +Bafl) are normalized to 100%, and values for experimental treatments were expressed as percent variations over control
UV induces aberrant degradation of autophagy substrate LC3 in A-T cells and brain slices. In FIG. 19A, LC3 degradation in UV-treated A-T cells is shown. […] Intensities of the total LC3 bands were quantitated using BioRad Quantity One software.

SMILES	UV-induced degradation of HA-Lys48-linked polyubiquitylated proteins ([1]; A-T cells)	UV-induced decrease of HA-polyubiquitylated proteins ([1]; A-T cells)	UV-induced decrease of HA-polyubiquitylated proteins ([1]; ATM+ cells)	UV-induced degradation of cellular proteins [2]	UV-mediated degradation of LC3 and p62 (LC3 and p62; A-T cells, Bafl 1 nM 18 h, UV 25 mJ/m2)	LC3 and p62 levels (LC3 and p62; ATM+ cells treated with UV in the absence or presence of Bafl)	UV-induced autophagic flux (LC3 degradation) (LC3 and p62; ATM+ cells, Bafilomycin A1 1 nM 18 h, UV 25 mJ)	UV-induced degradation of HA-polyubiquitylated proteins ([1]; A-T/LV-ISG15 shRNA (ISG15-silenced) cells)	UV-induced degradation of HA-polyubiquitylated proteins ([1]; A-T/LV-control shRNA cells)
CO/C1=C\C(C)=C\[C@@H](C)[C@@H](O)[C@@H](C)C/C(C)=C/C=C/[C@H](OC)[C@@H]([C@@H](C)[C@@H](O)[C@H](C)[C@@]2(O)C[C@@H](O)[C@H](C)[C@@H](C(C)C)O2)OC1=O [Bafilomycin A1]	resistant	failed to block	significantly blocked	failed to protect	failed to protect	no apparent changes	protected		
CC(C)C[C@@H](C=O)NC(=O)[C@H](CC(C)C)NC(=O)[C@H](CC(C)C)NC(=O)OCc1ccccc1 [MG132] (Cbz-Leu-Leu-Leu-aldehyde)	resistant	failed to protect	completely blocked					completely block	failed to block
